Here are results for three molecules from EP0673649A1, “Pharmaceutical compositions for the prolonged release of trimetazidine after oral administration” (ADIR ET COMPAGNIE, priority 1994, dated 1995).

For series [1] the following is noted: plasticizer added at 20 % to Eudragit RS® film; measured with chlorhydrate de phénylpropanolamine; cited from earlier work.
Series [2] in a line: in vitro dissolution / release of trimetazidine dihydrochloride from reservoir forms. Format: physicochemical. To be noted: release of trimetazidine dihydrochloride through a film containing this plasticizer (figure 1).
The conditions of series [3]: immediate-release oral forms; background statement; cited from earlier work.
A short description of series [4]: solubility in water of trimetazidine dihydrochloride. The class given is physicochemical. To be noted: read-out: solubilité du dichlorhydrate dans l'eau. Here is the method: Le poids moléculaire de la trimétazidine sous forme de base est de 266,33 et la solubilité du dichlorhydrate dans l'eau supérieure à 1000 mg/ml. De ce fait, il était très difficile d'obtenir des comprimés matriciels contrôlant la libération du principe actif sur plus de 16 heures. Ce problème a été résolu par l'utilisation du système réservoir décrit dans la présente invention.

On to `CCOC(=O)c1ccccc1C(=O)OCC` [Diéthylphtalate], for which the Perméabilité in series [1] is given as 14.8 mg.cm⁻².h⁻¹.
`CC(=O)OCC(COC(C)=O)OC(C)=O` [Triacétine]: the temps de latence entry in series [2] was “très long qui peut atteindre quatre heures”. Further, the Perméabilité in series [1] is recorded as 6.2 mg.cm⁻².h⁻¹.
On to `COc1ccc(CN2CCNCC2)c(OC)c1OC` [dichlorhydrate de trimétazidine, 1-(2,3,4-triméthoxybenzyl)pipérazine], for which, in series [3], the demi-vie plasmatique is on record as less than 6 heures. Moreover, the solubility in series [4] was more than 1000 mg/mL.
